Test results as given in publication PMC11195995, “A homogeneous time-resolved fluorescence screen to identify SIRT2 deacetylase and defatty-acylase inhibitors” (PLOS ONE, 2024).
Primed or numbered codes have the meaning given here. Ends that are not written are not given here. * marks the point of attachment. Myristoyl = CCCCCCCCCCCCCC(=O)*; PEG4′ = PEG4 linker; FAM = fluorescein

T1: SIRT2 (Homo sapiens, UniProt Q8IXJ6)
T1 sequence (Q8IXJ6 34-356): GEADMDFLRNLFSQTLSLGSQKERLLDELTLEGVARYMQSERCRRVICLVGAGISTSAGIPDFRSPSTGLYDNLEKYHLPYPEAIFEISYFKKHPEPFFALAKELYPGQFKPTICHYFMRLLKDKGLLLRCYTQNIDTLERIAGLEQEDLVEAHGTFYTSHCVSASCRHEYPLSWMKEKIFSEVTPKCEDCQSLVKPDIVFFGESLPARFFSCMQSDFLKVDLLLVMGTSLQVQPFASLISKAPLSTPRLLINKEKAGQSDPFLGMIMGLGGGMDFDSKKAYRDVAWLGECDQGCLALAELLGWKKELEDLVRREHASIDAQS

T2: human SIRT2 catalytic domain (6xHis-SUMO-SIRT2) (Homo sapiens, UniProt Q8IXJ6)
T2 sequence (Q8IXJ6 34-356): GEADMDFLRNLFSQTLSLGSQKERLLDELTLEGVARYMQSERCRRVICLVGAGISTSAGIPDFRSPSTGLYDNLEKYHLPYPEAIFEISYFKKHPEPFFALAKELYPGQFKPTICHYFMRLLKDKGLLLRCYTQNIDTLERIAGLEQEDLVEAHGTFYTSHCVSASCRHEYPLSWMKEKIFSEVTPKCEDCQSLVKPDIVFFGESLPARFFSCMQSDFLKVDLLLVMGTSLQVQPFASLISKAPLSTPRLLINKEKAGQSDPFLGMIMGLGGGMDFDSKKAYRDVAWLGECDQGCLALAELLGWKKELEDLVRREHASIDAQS

T3: 6xHis-SUMO-SIRT2 (human SIRT2 catalytic domain, amino acids 34-356, with N-terminal 6xHis-SUMO tag) (human, UniProt Q8IXJ6 34-356)
T3 construct: human SIRT2 catalytic domain, amino acids 34-356; Used in the HTRF assays; held near the FRET donor by a terbium cryptate-labeled anti-6xHis antibody (a tool); also called His tagged-SIRT2; sirtuin-2; not shown: His6, N-terminal, kept; SUMO, N-terminal, kept
T3 sequence (looked up): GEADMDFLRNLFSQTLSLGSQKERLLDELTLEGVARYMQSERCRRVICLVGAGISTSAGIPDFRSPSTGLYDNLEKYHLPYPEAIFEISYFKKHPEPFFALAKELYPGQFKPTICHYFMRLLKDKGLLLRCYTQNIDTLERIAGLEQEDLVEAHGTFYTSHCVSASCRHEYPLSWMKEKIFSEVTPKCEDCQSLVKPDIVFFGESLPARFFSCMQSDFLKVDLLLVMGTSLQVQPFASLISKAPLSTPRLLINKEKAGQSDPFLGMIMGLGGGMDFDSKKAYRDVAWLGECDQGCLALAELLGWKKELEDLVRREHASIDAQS

T4: SIRT2 catalytic domain (human, amino acids 34-356), 6xHis-SUMO tag removed (human, UniProt Q8IXJ6 34-356)
T4 construct: human SIRT2 catalytic domain, amino acids 34-356; also called sirtuin-2; source: tag removed, chromatographically purified; not shown: His6, N-terminal, cleaved; SUMO, N-terminal, cleaved
T4 sequence (looked up): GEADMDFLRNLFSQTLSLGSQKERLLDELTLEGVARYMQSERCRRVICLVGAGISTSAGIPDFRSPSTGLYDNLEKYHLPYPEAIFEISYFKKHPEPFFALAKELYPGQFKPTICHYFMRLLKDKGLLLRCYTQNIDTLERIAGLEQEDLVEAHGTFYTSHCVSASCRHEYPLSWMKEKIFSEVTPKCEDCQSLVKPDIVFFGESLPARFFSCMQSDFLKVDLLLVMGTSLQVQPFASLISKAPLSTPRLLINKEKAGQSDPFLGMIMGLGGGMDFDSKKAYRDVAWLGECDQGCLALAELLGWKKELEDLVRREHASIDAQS


What was measured:
SIRT2 [1] = biological target: T1, SIRT2; experiment: SIRT2 deacetylase activity assay (MALDI-MS, acetyl-H4K16 peptide); assay type: biochemical; details: for Deacetylase IC50: 4 μM acetyl-H4K16, 1 mM NAD+, 37°C, absolute IC50, "no effect" = 200 μM compound did not significantly affect SIRT2 activity
Description: (§1) The enzymatic activity of SIRT2 was measured using a MALDI-MS—based protocol reported previously. Reactions were performed at 37°C for 2.5 min in PBS containing 1 mM DTT and 1 mM of NAD^+. Acylated H4K16 peptides were used as the substrates at the following concentrations: acetyl-H4K16, 4 μM; decanoyl-H4K16, 0.2 μM; dodecanoyl-H4K16, 0.5 μM; myristoyl-H4K16, 0.5 μM. These concentrations correspond to the enzyme’s Km for each substrate under saturating NAD^+ conditions. The enzyme concentration in each reaction was chosen such that 20% or less of the substrate was processed by the enzyme when the reactions were quenched. In dose-response assays showing a reduction in SIRT2 activity by increasing amounts of ligand, the data was fit with standard sigmoidal dose-response curves as we previously described. We report absolute IC50 values from the curves which reflect ligand concentrations that reduce the activity of the enzyme by 50% compared to control (no ligand) samples. Assays measuring the effects of ligand on SIRT1 deacetylase and SIRT6 demyristoylase activities were performed similarly, as previously described.

SIRT2 [2] = biological target: T1, SIRT2; experiment: SIRT2 demyristoylase activity assay (MALDI-MS, myristoyl-H4K16 peptide); assay type: biochemical; details: 0.5 μM myristoyl-H4K16, 1 mM NAD+, 37°C; absolute IC50; "no effect" = 200 μM compound did not significantly affect SIRT2 activity
Description: as §1

SIRT2 [3] = biological target: T1, SIRT2; experiment: 1-aminoanthracene binding competition assay, SIRT2 alone
Description: Competition assays where 1-aminoanthracene was displaced from SIRT2 by 2, 4, 5, and 6 were performed as previously reported where we described its displacement from SIRT2 by 3. The assays were also cuvette-based and performed at 23°C in PBS with 1 mM DTT, and the final DMSO concentration was 0.6%. Briefly, the fluorescence intensity of 100 nM 1-aminoanthracene was measured in the presence of 4 μM SIRT2 and increasing amounts of ligand using excitation/emission wavelengths of 390 nm/520 nm. As previously described, displacement of 1-aminoanthracene from SIRT2 by a competitor results in a reduction of its fluorescence.
We determined and report absolute IC50 values from the curves which reflect ligand concentrations that reduce the fluorescence by 50% compared to control (no ligand) samples.

[4] = biological target: T2, human SIRT2 catalytic domain (6xHis-SUMO-SIRT2)
[5] = biological target: T3, 6xHis-SUMO-SIRT2 (human SIRT2 catalytic …); experiment: AlphaScreen or HTRF; direct binding; 6xHis-SUMO-SIRT2 and FAM-myristoyl-H4K16 peptide 0-10 nM each, 0.2 nM anti-6xHis terbium cryptate-labeled antibody as FRET donor; 384-well plates, room temperature, 10 mM Hepes-NaOH pH 7.4, 150 mM NaCl, 5 mM DTT, 0.005% Tween-20; apparent Kd; details: both partners purified
[6] = biological target: T3, 6xHis-SUMO-SIRT2 (human SIRT2 catalytic …); experiment: AlphaScreen or HTRF; competition; 3 nM SIRT2, 0.2 nM terbium cryptate-labeled antibody, 3 nM FAM-myristoyl-H4K16 peptide, 10 ul/well; unlabeled myristoyl-H4K16 peptide as competitor; details: both partners purified
[7] = biological target: T4, SIRT2 catalytic domain (human, amino …); experiment: ITC; PBS, 25°C; 20 uM SIRT2 in the cell, 200 uM peptide in the syringe; one site binding model; details: both partners purified

Row | Molecule | Deacetylase IC50 (SIRT2 [1]) | Demyristoylase IC50 (SIRT2 [2]) | also measured
1 | CCCCOc1cc(F)c(O)c(F)c1 [compound 13, 4-butoxy-2,6-difluorophenol] | no effect | no effect | –
2 | Oc1ccc(Br)cc1C(F)(F)F [compound 11, 4-bromo-2-(trifluoromethyl)phenol] | no effect | no effect | –
3 | FC(F)(F)C1(c2ccccc2)N=N1 [compound 8, 3-phenyl-3-(trifluoromethyl)-3H-diazirine] | – | no effect | IC50 (SIRT2 [1]): 114 µM
4 | Oc1c(I)cc(Br)cc1I [compound 10, 4-bromo-2,6-diiodophenol] | no effect | no effect | –
5 | CCCCCc1ccc(C)cc1O [compound 6, 5-methyl-2-pentylphenol] | – | – | IC50 (SIRT2 [3]; SIRT2 only, 100 nM 1-aminoanthracene, 4 μM SIRT2): 81 µM; Kd (SIRT2 [3]; read-out: SIRT2 Kd): 73 µM
6 | COc1ccc(NC(=O)c2ccc3c(SCC(=O)O)c4c(nc3c2)CCCC4)c(OC)c1 [C598-0017] | – | – | IC50 [4]: 6.34 µM
7 | Oc1c(F)cc(Br)cc1I [compound 9, 4-bromo-2-fluoro-6-iodophenol] | no effect | no effect | –
8 | {FAM-PEG4′}-KGLGKGGAK(Myristoyl)RHRK | – | – | Kd [5]: ~0.001 µM
9 | KGLGKGGAK(Myristoyl)RHRK | – | – | IC50 [6]: 0.002 µM; Kd [7]: 0.013 µM
